Data as given in ChEMBL document CHEMBL6114945, “Cyclic vinyl sulfones activate NRF2 to protect from oxidative stress-induced programmed necrosis” (Bioorg Med Chem Lett, 2025).
Calls of active or inactive are those of the source. No cut-off for these calls is given here. Where a SMILES comes first, the peptide text is derived from it. The star is where a group is joined. Cbz = O=C(OCc1ccccc1)*

Columns and labels:
[1] = Inhibition of proteasome-mediated NRF2 degradation in human HeLa cells assessed as increase in NRF2 level at 10 uM measured after 6 hrs by Western blotting analysis; type: toxicity, cell-based
[2] = target: Kelch-like ECH-associated protein 1 (Homo sapiens) (UniProt Q14145); experiment: Binding affinity to KEAP1 in human HeLa cells assessed as appearance of high molecular weight bands of modified KEAP1 at 10 uM measured after 4 to 24 hrs by Western blotting analysis; type: cell-based; conditions: time 4-24 hrs
[3] = target: T1, Keap1/Nrf2 (Homo sapiens) (UniProt Q16236+Q14145); experiment: Inhibition of KEAP1 BTB domain-NRF2 protein-protein interaction in human NCI-H1299 cells assessed as upregulation of p-62 expression at 1.25 to 20 uM measured after 18 hrs by Western blot analysis; type: cell-based; conditions: dose 1.25-20 µM
NCI-H1299 [4] = experiment: Protection against RSL3-induced ferroptosis in human NCI-H1299 cells at 10 uM preincubated for 6 hrs followed by RSL3 addition and measured after 18 hrs by phase contrast microscopy; type: functional, cell-based
[5] = target: T1, Keap1/Nrf2 (Homo sapiens); experiment: Inhibition of KEAP1 BTB domain-NRF2 protein-protein interaction in human NCI-H1299 cells assessed as upregulation of SLC7A11 expression at 1.25 to 20 uM measured after 18 hrs by Western blot analysis; type: cell-based; conditions: dose 1.25-20 µM
[6] = target: Kelch-like ECH-associated protein 1 (Homo sapiens) (UniProt Q14145); experiment: Binding affinity to KEAP1 in human HCT-116 cells assessed as appearance of high molecular weight bands of modified KEAP1 at 2.5 to 40 uM measured after 18 hrs by Western blotting analysis; type: cell-based; conditions: dose 2.5-40 µM
[7] = target: T1, Keap1/Nrf2 (Homo sapiens); experiment: Inhibition of KEAP1 BTB domain-NRF2 protein-protein interaction in human HeLa cells assessed as upregulation of NQO1 mRNA expression at 20 uM measured after 8 hrs by RT-PCR analysis; type: cell-based
HeLa [8] = experiment: Cytotoxicity against human HeLa cells at 40 uM; type: toxicity, cell-based
NCI-H1299 [9] = experiment: Protection against RSL3-induced ferroptosis in human NCI-H1299 cells at 5 to 10 uM preincubated for 6 hrs followed by RSL3 addition and measured after 18 hrs by crystal violet staining based assay; type: functional, cell-based; conditions: dose 5-10 µM, time 24.0 hrs
[10] = target: T1, Keap1/Nrf2 (Homo sapiens); experiment: Inhibition of KEAP1 BTB domain-NRF2 protein-protein interaction in human HeLa cells assessed as upregulation of HO-1 level at 10 uM measured after 8 to 24 hrs by Western blotting analysis; type: cell-based; conditions: time 8-24 hrs
[11] = target: T1, Keap1/Nrf2 (Homo sapiens); experiment: Inhibition of KEAP1 BTB domain-NRF2 protein-protein interaction in human NCI-H1299 cells assessed as increase in nuclear localization of NRF2 at 20 uM measured after 18 hrs by immunostaining based microscopic analysis; type: cell-based
[12] = target: T1, Keap1/Nrf2 (Homo sapiens); experiment: Inhibition of KEAP1 BTB domain-NRF2 protein-protein interaction in human HeLa cells assessed as upregulation of HO-1 mRNA expression at 20 uM measured after 4 to 8 hrs by RT-PCR analysis; type: cell-based; conditions: time 4-8 hrs
[13] = target: T1, Keap1/Nrf2 (Homo sapiens); experiment: Inhibition of KEAP1 BTB domain-NRF2 protein-protein interaction in human NCI-H1299 cells assessed as upregulation of GCSc expression at 1.25 to 20 uM measured after 18 hrs by Western blot analysis; type: cell-based; conditions: dose 1.25-20 µM
[14] = target: T1, Keap1/Nrf2 (Homo sapiens); experiment: Inhibition of KEAP1 BTB domain-NRF2 protein-protein interaction in human HeLa cells assessed as upregulation of NRF2 level at 5 to 40 uM measured after 18 hrs by Western blotting analysis; type: cell-based; conditions: dose 5-40 µM
[15] = target: T1, Keap1/Nrf2 (Homo sapiens); experiment: Inhibition of KEAP1 BTB domain-NRF2 protein-protein interaction in human HeLa cells assessed as upregulation of NQO1 mRNA expression at 40 uM measured after 4 to 8 hrs by RT-PCR analysis; type: cell-based; conditions: time 4-8 hrs
[16] = target: T1, Keap1/Nrf2 (Homo sapiens); experiment: Inhibition of KEAP1 BTB domain-NRF2 protein-protein interaction in human HCT-116 cells assessed as upregulation of NRF2 level at 2.5 to 40 uM measured after 18 hrs by Western blotting analysis; type: cell-based; conditions: dose 2.5-40 µM
[17] = target: T1, Keap1/Nrf2 (Homo sapiens); experiment: Inhibition of KEAP1 BTB domain-NRF2 protein-protein interaction in human HeLa cells assessed as upregulation of HO-1 level at 40 uM measured after 18 hrs by Western blotting analysis; type: cell-based
[18] = target: T1, Keap1/Nrf2 (Homo sapiens); experiment: Inhibition of KEAP1 BTB domain-NRF2 protein-protein interaction in human NCI-H1299 cells assessed as upregulation of HO-1 expression at 1.25 to 20 uM measured after 6 hrs by Western blot analysis; type: cell-based; conditions: dose 1.25-20 µM
[19] = target: T1, Keap1/Nrf2 (Homo sapiens); experiment: Inhibition of KEAP1 BTB domain-NRF2 protein-protein interaction in human HeLa cells assessed as upregulation of NRF2 mRNA expression at 20 to 40 uM measured after 8 hrs by RT-PCR analysis; type: cell-based; conditions: dose 20-40 µM
HCT-116 [20] = experiment: Cytotoxicity against human HCT-116 cells at 40 uM; type: toxicity, cell-based; conditions: hct-116, 40 µM
[21] = target: T1, Keap1/Nrf2 (Homo sapiens); experiment: Inhibition of KEAP1 BTB domain-NRF2 protein-protein interaction in human HeLa cells assessed as upregulation of NRF2 mRNA expression at 20 to 40 uM measured after 4 hrs by RT-PCR analysis; type: cell-based; conditions: dose 20-40 µM
HeLa [22] = experiment: Effect on KEAP1 mRNA expression level in human HeLa cells at 20 to 40 uM measured after 4 to 8 hrs by RT-PCR analysis; type: functional, cell-based; conditions: dose 20-40 µM, time 4-8 hrs
[23] = target: T1, Keap1/Nrf2 (Homo sapiens); experiment: Inhibition of KEAP1 BTB domain-NRF2 protein-protein interaction in human HeLa cells assessed as upregulation of p-62 mRNA expression at 20 to 40 uM measured after 8 hrs by RT-PCR analysis; type: cell-based; conditions: dose 20-40 µM
HeLa [24] = experiment: Protection against erastin-induced ferroptosis in human HeLa cells assessed as reduction in cell death; type: functional, cell-based
NCI-H1299 [25] = experiment: Protection against RSL3-induced ferroptosis in human NCI-H1299 cells assessed as reduction in cell death at 5 to 10 uM preincubated for 6 hrs followed by RSL3 addition and measured after 18 hrs by morphological analysis; type: functional, cell-based; conditions: dose 5-10 µM, time 24.0 hrs
[26] = target: T1, Keap1/Nrf2 (Homo sapiens); experiment: Inhibition of KEAP1 BTB domain-NRF2 protein-protein interaction in human HeLa cells assessed as upregulation of NRF2 level at 10 uM measured after 8 to 24 hrs by Western blotting analysis; type: cell-based; conditions: time 8-24 hrs
[27] = target: T1, Keap1/Nrf2 (Homo sapiens); experiment: Inhibition of KEAP1 BTB domain-NRF2 protein-protein interaction in human HCT-116 cells assessed as upregulation of NRF2 level at 2.5 to 20 uM measured after 18 hrs by Western blotting analysis; type: cell-based; conditions: dose 2.5-20 µM
[28] = target: T1, Keap1/Nrf2 (Homo sapiens); experiment: Inhibition of KEAP1 BTB domain-NRF2 protein-protein interaction in human HeLa cells assessed as upregulation of NRF2 level at 2.5 uM measured after 18 hrs by Western blotting analysis; type: cell-based
A549 [29] = experiment: Inhibition of KEAP1 mutant-NRF2 protein-protein interaction in human A549 cells assessed as upregulation of NRF2 level at 2.5 to 20 uM measured after 18 hrs by Western blotting analysis; type: cell-based; conditions: dose 2.5-20 µM
HCT-116 [30] = experiment: Cytotoxicity against human HCT-116 cells at >20 uM; type: toxicity, cell-based; conditions: hct-116, 20 µM
[31] = target: T1, Keap1/Nrf2 (Homo sapiens); experiment: Inhibition of KEAP1 BTB domain-NRF2 protein-protein interaction in human HeLa cells assessed as upregulation of HO-1 level at 5 uM measured after 18 hrs by Western blotting analysis; type: cell-based
A549 [32] = experiment: Inhibition of KEAP1 mutant-NRF2 protein-protein interaction in human A549 cells assessed as upregulation of HO-1 level at 2.5 to 20 uM measured after 18 hrs by Western blotting analysis; type: cell-based; conditions: dose 2.5-20 µM
[33] = target: T1, Keap1/Nrf2 (Homo sapiens); experiment: Inhibition of KEAP1-NRF2 protein-protein interaction in human HeLa cells assessed as increase in NRF2 level at 50 uM measured after 6 hrs by Western blotting analysis; type: cell-based
[34] = target: T1, Keap1/Nrf2 (Homo sapiens); experiment: Inhibition of KEAP1 BTB domain-NRF2 protein-protein interaction in human HeLa cells assessed as increase in NRF2 level at 50 nM measured after 6 hrs by Western blotting analysis; type: cell-based

T1 sequence (Q14145 whole entry, looked up, the tested form may be a part): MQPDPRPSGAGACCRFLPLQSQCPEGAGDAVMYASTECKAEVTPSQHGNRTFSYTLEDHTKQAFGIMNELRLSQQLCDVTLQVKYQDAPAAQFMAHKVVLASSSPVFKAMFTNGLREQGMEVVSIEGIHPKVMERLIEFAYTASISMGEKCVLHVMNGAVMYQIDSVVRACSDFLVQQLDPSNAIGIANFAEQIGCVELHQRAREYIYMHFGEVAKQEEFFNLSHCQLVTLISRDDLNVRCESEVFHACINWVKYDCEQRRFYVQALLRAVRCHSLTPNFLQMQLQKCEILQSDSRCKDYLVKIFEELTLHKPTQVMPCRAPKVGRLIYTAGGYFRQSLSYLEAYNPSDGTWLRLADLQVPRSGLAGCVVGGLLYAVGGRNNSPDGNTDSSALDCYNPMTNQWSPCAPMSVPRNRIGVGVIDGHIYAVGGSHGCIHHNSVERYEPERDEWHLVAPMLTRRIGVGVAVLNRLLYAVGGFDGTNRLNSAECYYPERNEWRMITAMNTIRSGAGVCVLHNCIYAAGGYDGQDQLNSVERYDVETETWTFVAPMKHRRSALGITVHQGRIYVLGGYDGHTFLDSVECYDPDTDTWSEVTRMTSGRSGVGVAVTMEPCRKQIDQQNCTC
T1 sequence (Q16236 whole entry, looked up, the tested form may be a part): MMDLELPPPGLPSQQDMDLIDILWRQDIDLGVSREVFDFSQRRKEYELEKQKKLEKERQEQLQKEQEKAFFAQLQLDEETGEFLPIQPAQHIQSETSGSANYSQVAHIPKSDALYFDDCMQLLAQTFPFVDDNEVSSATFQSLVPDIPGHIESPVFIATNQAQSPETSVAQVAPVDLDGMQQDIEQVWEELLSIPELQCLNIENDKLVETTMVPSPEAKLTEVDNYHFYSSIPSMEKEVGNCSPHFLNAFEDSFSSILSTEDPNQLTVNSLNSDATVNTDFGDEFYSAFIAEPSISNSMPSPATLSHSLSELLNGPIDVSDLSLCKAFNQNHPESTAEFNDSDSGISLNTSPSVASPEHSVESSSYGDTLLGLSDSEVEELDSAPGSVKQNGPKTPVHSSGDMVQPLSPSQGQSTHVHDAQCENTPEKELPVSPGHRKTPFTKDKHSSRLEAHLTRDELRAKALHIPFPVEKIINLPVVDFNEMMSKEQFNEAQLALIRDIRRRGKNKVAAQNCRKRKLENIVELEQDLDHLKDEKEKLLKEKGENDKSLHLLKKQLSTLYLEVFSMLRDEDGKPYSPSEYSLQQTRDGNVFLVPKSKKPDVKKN
Kelch-like ECH-associated protein 1 (Homo sapiens), sequence (Q14145 whole entry, the tested form may be a part): as the sequence (Q14145 whole entry, looked up, the tested form may be a part) above

CC(C)C[C@@H](C=O)NC(=O)[C@H](CC(C)C)NC(=O)[C@H](CC(C)C)NC(=O)OCc1ccccc1 [MG-132] (Cbz-Leu-Leu-Leu-aldehyde)
inhibition (INH) [1]: Active

CC1=C2C(CCS2(=O)=O)c2c(c(O)c3ccccc3c2O)C1 (centres undefined)
Activity [2]: Active
inhibition [3]: Active
Activity (NCI-H1299 [4]): Active; Slightly More Profound Effect Observed At 10 Um
inhibition [5]: Active
Activity [6]: Active
inhibition [7]: Active
Activity (HeLa [8]): Non-toxic
Activity (NCI-H1299 [9]): Active; Almost Complete Protection Observed
inhibition [10]: Active; Most Efficient Effect Was Observed After 8 Hrs
inhibition [11]: Active
inhibition [12]: Active; Significant Changes Observed
inhibition [13]: Active
inhibition [14]: Active; Stronger Activation Of Nrf2 Observed
inhibition [15]: Active; Highly Upregulated
inhibition [16]: Active; Stronger Activation Of Nrf2 Observed
inhibition [17]: Active; Most Efficiently Upregulated The Ho-1 Level At 40 Um
inhibition [18]: Active
inhibition [19]: Active
Activity (HCT-116 [20]): Non-toxic
inhibition [21]: inactive
Activity (HeLa [22]): inactive
inhibition [23]: Active; Significant Upregulation Observed
Activity (HeLa [24]): Active
Activity (NCI-H1299 [25]): Active; Almost Complete Protection Observed
inhibition [26]: Active; Most Efficient Effect Was Observed After 8 Hrs

CC1=C2C(CCS2(=O)=O)c2c(O)ccc(O)c2C1 (centres undefined)
inhibition [27]: Active; Upregulated Nrf2 To A Lesser Degree
inhibition [28]: Active
inhibition (A549 [29]): inactive
Activity (HCT-116 [30]): Toxic
inhibition [31]: Active
inhibition (A549 [32]): inactive

CC(C)(C)c1cc(O)ccc1O
inhibition [33]: Active

CC1(C)CC[C@]2(C(=O)O)CC[C@]3(C)[C@H](C(=O)C=C4[C@@]5(C)C=C(C#N)C(=O)C(C)(C)[C@@H]5CC[C@]43C)[C@@H]2C1
inhibition [34]: Active
